Test results as given in patent publication US20260256925A1, “INDAZOLE DERIVATIVES AS ESTROGEN RECEPTOR DEGRADERS” (REGENTS OF THE UNIVERSITY OF MICHIGAN, priority 2022, published 2026).

Legend:
Type in all cases: cell-based
ER [1] = target: T1, ER (Homo sapiens, UniProt P03372); assay: Western blot analysis (compounds B1-B126); settings: ER degradation, read-out: Traditional Western Degradation potency (DC50)
T1 construct: endogenous in cells; probably T47D or MCF-7
T1 sequence (P03372 1-595): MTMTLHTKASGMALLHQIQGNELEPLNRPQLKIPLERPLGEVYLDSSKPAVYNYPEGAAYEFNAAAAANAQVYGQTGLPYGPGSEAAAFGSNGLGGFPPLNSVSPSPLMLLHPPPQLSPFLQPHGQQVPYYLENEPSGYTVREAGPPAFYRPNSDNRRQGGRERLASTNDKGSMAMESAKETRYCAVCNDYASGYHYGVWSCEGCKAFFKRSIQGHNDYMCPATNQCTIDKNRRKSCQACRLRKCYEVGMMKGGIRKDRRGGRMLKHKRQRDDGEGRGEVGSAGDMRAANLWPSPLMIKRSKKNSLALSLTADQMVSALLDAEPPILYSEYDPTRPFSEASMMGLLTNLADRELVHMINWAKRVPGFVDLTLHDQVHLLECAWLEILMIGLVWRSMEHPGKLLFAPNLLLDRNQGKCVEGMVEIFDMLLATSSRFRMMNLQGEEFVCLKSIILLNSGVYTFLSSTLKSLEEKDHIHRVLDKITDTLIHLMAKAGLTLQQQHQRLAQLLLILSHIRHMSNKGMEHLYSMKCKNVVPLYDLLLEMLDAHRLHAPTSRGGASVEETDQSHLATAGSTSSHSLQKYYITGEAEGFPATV
Experimental: Western Blot Analysis. The cells that are treated with the compounds are lysed in Radioimmunoprecipitation Assay Protein Lysis and Extraction Buffer (e.g., 25 mmol/L Tris.HCl, pH 7.6, 150 mmol/L NaCl, 1% Nonidet P-40, 1% sodium deoxycholate, and 0.1% sodium dodecyl sulfate) containing proteinase inhibitor cocktail. Equal amounts of total protein are electrophoresed through 10% SDS-polyacrylamide gels after determination of protein concentration by BCA assay. The separated protein bands are transferred onto PVDF membranes and blotted against different antibodies. The blots are scanned, and the band intensities are quantified (e.g., by using GelQuant.NET software provided by biochemlabsolutions.com). The relative mean intensity of target proteins is expressed after normalization to the intensity of glyceraldehyde-3-phosphate dehydrogenase bands.
Western Blot Analysis. Western blot analysis was performed essentially as described previously. The cells treated with indicated compounds were lysed in Radioimmunoprecipitation Assay Protein Lysis and Extraction Buffer (25 mmol/L Tris.HCl, pH 7.6, 150 mmol/L NaCl, 1% Nonidet P-40, 1% sodium deoxycholate, and 0.1% sodium dodecyl sulfate) containing proteinase inhibitor cocktail (Roche Diagnostics, Mannheim, Germany). Equal amounts of total protein were electrophoresed through 10% SDS-polyacrylamide gels after determination of protein concentration by BCA assay (Fisher Scientific, Pittsburgh, PA). The separated protein bands were transferred onto PVDF membranes (GE Healthcare Life Sciences, Marlborough, MA) and blotted against different antibodies, as indicated. The blots were scanned, and the band intensities were quantified using GelQuant.NET software provided by biochemlabsolutions.com. The relative mean intensity of target proteins was expressed after normalization to the intensity of glyceraldehyde-3-phosphate dehydrogenase bands.

ER [2] = target: T1, ER; assay: In-cell Western (ICW) ER degradation assay in MCF-7 cells; settings: 16 hrs
Experimental: (§1) ERa degradative activity of compounds can be assessed in MCF-7 and T47D Cells. MCF-7 and T47D cell are seeded and are subsequently treated with the compounds at certain concentrations (e.g., 0.02 to 300 nM). DMSO can be used as vehicle control. Cells are fixed and are blocked with Intercept (PBS) Blocking Buffer (e.g., Li—COR, Odyssey Blocking Buffer), and are stained with ER (e.g., 1:500, Cell signaling) primary antibody for overnight at cold room. Secondary Antibody (e.g., IRDye 800CW Goat anti-Rabbit IgG) and CellTag 700 Stain are added in Intercept (PBS) Blocking Buffer. Finally, cell plate is placed in incubator to dry. Image and signal are captured on Odyssey® DLx Imaging System.
(§2) In-cell Western (ICW) assays in MCF-7 and T47D cell lines.
(§3) Procedures for ICW assays
(§4) In vitro Assay: MCF-7 and T47D ICW assay
(§5) Day 3: After 16 hrs of compounds treatment, cells were fixed by 4% PFA and permeabilized with elution buffer (0.1% Triton X-100 in 1% PBS Solution). Subsequently, cells were blocked with Intercept (PBS) Blocking Buffer (Li—COR, Odyssey Blocking Buffer), and were stained with ER (1:500, Cell signaling) primary antibody for overnight at cold room.
(§6) Day 4: Remove the buffer, add IRDye 800CW Goat anti-Rabbit IgG Secondary Antibody (1:2000) and CellTag 700 Stain (1:500) in Intercept (PBS) Blocking Buffer. Finally, cell plate is placed in incubator to dry. Image and signal were captured on Odyssey® DLx Imaging System.

ER [3] = target: T1, ER; assay: In-cell Western (ICW) ER degradation assay in T47D cells; settings: T47D cells, 16 hrs
Experimental: as §1, §2, §3, §4, §5, §6

ER [4] = target: T1, ER; assay: In-cell western blot analysis, relative ER percentage (compounds B1-B126); settings: ER degradation, 16 hours, read-out: ICW DC50
Procedure, shortened: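 Cells seeded at 40,000 or 10,000 per well overnight were treated with compound (final 0.5% DMSO) for 16 hours, then fixed with formaldehyde. ER was detected with primary antibodies and anti-rabbit-680/anti-mouse-800 secondaries on a CLX reader. Signal is expressed relative to untreated and DMSO wells set as 100%.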

[5] = Cell growth assay, WST-8 (compounds B1-B126); settings: 96 h; T47D cell line, WST-8, 4 days; read-out: Cell growth inhibition in T47D cell line IC50
Procedure, shortened: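 Cells seeded at 1500/well overnight, treated one day later with compound doses for 4 days, then 10% WST-8 added for 2.5 h at 37° C in CO2. Absorbance at 450 nm, expressed relative to vehicle control over three independent repeats.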

## C[C@@H]1Cc2c(ccc3[nH]ncc23)[C@@H](c2c(F)cc(N3CCC(CN4CCC(N5Cc6cc7c(cc6C5)C(=O)N(C5CCC(=O)NC5=O)C7)CC4)CC3)cc2F)N1CC(F)F (stereo partly drawn) [Compound B71, 3-(6-(1-((1-(4-((6S,8R)-7-(2,2-difluoroethyl)-8-methyl-6,7,8,9-tetrahydro-3H-pyrazolo[4,3-f]isoquinolin-6-yl)-3,5-difluorophenyl)piperidin-4-yl)methyl)piperidin-4-yl)-1-oxo-3,5,6,7-tetrahydropyrrolo[3,4-f]isoindol-2(1H)-yl)piperidine-2,6-dione]
ER [1]
  DC50: 10 to 100 nM

## C[C@@H]1Cc2c(ccc3[nH]ncc23)[C@@H](c2c(F)cc(N3CCC(CN4CC5(Cc6cc7c(cc6C5)C(=O)N(C5CCC(=O)NC5=O)C7=O)C4)CC3)cc2F)N1CC(F)F (stereo partly drawn) [Compound B14, 1-((1-(4-((6S,8R)-7-(2,2-difluoroethyl)-8-methyl-6,7,8,9-tetrahydro-3H-pyrazolo[4,3-f]isoquinolin-6-yl)-3,5-difluorophenyl)piperidin-4-yl)methyl)-2′-(2,6-dioxopiperidin-3-yl)-5′,7′-dihydro-1′H-spiro[azetidine-3,6′-cyclopenta[f]isoindole]-1′,3′(2′H)-dione]
ER [1]
  DC50: > 100 nM

## C[C@@H]1Cc2c(ccc3[nH]ncc23)[C@@H](c2ccc(N3CCC4(CC3)CC(CN3CCN5c6cc7c(cc6OC[C@@H]5C3)C(=O)N([C@@H]3CCC(=O)NC3=O)C7)C4)cn2)N1CC1(F)CC1 [Compound A12, (R)-3-((S)-3-((7-(6-((6S,8R)-7-((1-fluorocyclopropyl)methyl)-8-methyl-6,7,8,9-tetrahydro-3H-pyrazolo[4,3-f]isoquinolin-6-yl)pyridin-3-yl)-7-azaspiro[3.5]nonan-2-yl)methyl)-8-oxo-1,2,3,4,4a,5,8,10-octahydro-9H-pyrazino[1′,2′: 4,5][1,4]oxazino[2,3-f]isoindol-9-yl)piperidine-2,6-dione]
ER [2]; MCF7, MCF-7 cells, read-out: ER MCF7 ICW Dmax (%)
  Dmax: > 75%
ER [2]; MCF-7 cells, read-out: ER MCF7 ICW DC50
  DC50: < 1 nM
ER [3]
  DC50: < 1 nM
ER [3]; T47D, read-out: ER T47D ICW Dmax (%)
  Dmax: > 75%

## C[C@@H]1Cc2c(ccc3[nH]ncc23)[C@@H](c2c(F)cc([C@H]3CC[C@H](C(=O)N4CC(CN5Cc6cc7c(cc6C5)C(=O)N(C5CCC(=O)NC5=O)C7=O)C4)CC3)cc2F)N1CC(F)F (stereo partly drawn) [Compound B3, 6-((1-((1S,4r)-4-(4-((6S,8R)-7-(2,2-difluoroethyl)-8-methyl-6,7,8,9-tetrahydro-3H-pyrazolo[4,3-f]isoquinolin-6-yl)-3,5-difluorophenyl)cyclohexane-1-carbonyl)azetidin-3-yl)methyl)-2-(2,6-dioxopiperidin-3-yl)-6,7-dihydropyrrolo[3,4-f]isoindole-1,3(2H,5H)-dione]
ER [1]
  DC50: > 100 nM

## C[C@@H]1Cc2c(ccc3[nH]ncc23)[C@@H](c2ccc(C3CCC(C(=O)N4CCC(N5Cc6cc7c(cc6C5)C(=O)N(C5CCC(=O)NC5=O)C7=O)CC4)CC3)cn2)N1CC(F)(F)F (stereo partly drawn) [Compound B10, 2-(2,6-dioxopiperidin-3-yl)-6-(1-(4-(6-((6S,8R)-8-methyl-7-(2,2,2-trifluoroethyl)-6,7,8,9-tetrahydro-3H-pyrazolo[4,3-f]isoquinolin-6-yl)pyridin-3-yl)cyclohexane-1-carbonyl)piperidin-4-yl)-6,7-dihydropyrrolo[3,4-f]isoindole-1,3(2H,5H)-dione]
ER [1]
  DC50: 10 to 100 nM

## C[C@@H]1Cc2c(ccc3[nH]ncc23)[C@@H](c2c(F)cc(N3CCC4(CCN(CC(=O)N5Cc6cc7c(cc6C5)C(=O)N(C5CCC(=O)NC5=O)C7=O)CC4)CC3)cc2F)N1CC(F)F (stereo partly drawn) [Compound B5, 6-(2-(9-(4-((6S,8R)-7-(2,2-difluoroethyl)-8-methyl-6,7,8,9-tetrahydro-3H-pyrazolo[4,3-f]isoquinolin-6-yl)-3,5-difluorophenyl)-3,9-diazaspiro[5.5]undecan-3-yl)acetyl)-2-(2,6-dioxopiperidin-3-yl)-6,7-dihydropyrrolo[3,4-f]isoindole-1,3(2H,5H)-dione]
ER [1]
  DC50: 10 to 100 nM

## C[C@@H]1Cc2c(ccc3[nH]ncc23)[C@@H](c2c(F)cc(N3CCC(CN4CCN5c6cc7c(cc6N(C)C[C@@H]5C4)C(=O)N(C4CCC(=O)NC4=O)C7)CC3)cc2F)N1CC(F)F (stereo partly drawn) [Compound B18, 3-((S)-3-((1-(4-((6S,8R)-7-(2,2-difluoroethyl)-8-methyl-6,7,8,9-tetrahydro-3H-pyrazolo[4,3-f]isoquinolin-6-yl)-3,5-difluorophenyl)piperidin-4-yl)methyl)-6-methyl-8-oxo-2,3,4,4a,5,6,8,10-octahydropyrazino[1,2-a]pyrrolo[3,4-g]quinoxalin-9(1H)-yl)piperidine-2,6-dione]
ER [1]
  DC50: 10 to 100 nM

## C[C@@H]1Cc2c(ccc3[nH]ncc23)[C@@H](c2c(F)cc(N3CCC(CN4CCC(N5Cc6cc7c(cc6C5)C(=O)N(C5CCC(=O)NC5=O)C7=O)CC4)CC3)cc2F)N1CC(F)F (stereo partly drawn) [Compound B70, 6-(1-((1-(4-((6S,8R)-7-(2,2-difluoroethyl)-8-methyl-6,7,8,9-tetrahydro-3H-pyrazolo[4,3-f]isoquinolin-6-yl)-3,5-difluorophenyl)piperidin-4-yl)methyl)piperidin-4-yl)-2-(2,6-dioxopiperidin-3-yl)-6,7-dihydropyrrolo[3,4-f]isoindole-1,3(2H,5H)-dione]
ER [1]
  DC50: 10 to 100 nM

## C[C@@H]1Cc2c(ccc3[nH]ncc23)[C@@H](c2cnc(N3CCC4(CC3)CC(CN3CCN5c6ccc7c(c6OC[C@H]5C3)CN(C3CCC(=O)NC3=O)C7=O)C4)nc2)N1CC(F)(F)F (stereo partly drawn) [Compound B112, 3-((R)-7-((7-(5-((6S,8R)-8-methyl-7-(2,2,2-trifluoroethyl)-6,7,8,9-tetrahydro-3H-pyrazolo[4,3-f]isoquinolin-6-yl)pyrimidin-2-yl)-7-azaspiro[3.5]nonan-2-yl)methyl)-1-oxo-1,3,5,5a,6,7,8,9-octahydro-2H-pyrazino[1′,2′:4,5][1,4]oxazino[2,3-e]isoindol-2-yl)piperidine-2,6-dione]
ER [4]
  DC50: < 10 nM
[5]
  IC50: < 1 nM
